Source: ChEMBL document CHEMBL1152474, “Synthesis and investigation of anti-inflammatory activity and gastric ulcerogenicity of novel nitric oxide-donating pyrazoline derivatives” (Eur J Med Chem, 2009)

Legend:
Rattus norvegicus [1] = assay: Antiinflammatory activity in albino rat assessed as inhibition of carrageenan-induced paw edema at 100 mg/kg, po treated for 30 mins measured after 1 hr of carrageenan challenge; type: functional
Rattus norvegicus [2] = assay: Antiinflammatory activity in albino rat assessed as inhibition of carrageenan-induced paw edema at 100 mg/kg, po treated for 30 mins measured after 3 hrs of carrageenan challenge; type: functional
Rattus norvegicus [3] = assay: Gastrotoxicity in albino rat assessed as ulcer index at 100 mg/kg, po after 5 hrs; type: toxicity, organism-based; design: dose 100 mg/kg, route oral; details: in vivo
Rattus norvegicus [4] = assay: Antiinflammatory activity in albino rat assessed as inhibition of carrageenan-induced paw edema at 100 mg/kg, po treated for 30 mins measured after 2 hrs of carrageenan challenge; type: functional
[5] = Induction of NO release in phosphate buffer at pH 1 at 100 uM by Griess assay; type: physicochemical; details: pH 1, 100 µM
[6] = Induction of NO release per mol of compound in phosphate buffer at pH 7.4 at 100 uM after 2 hrs by Griess assay; type: physicochemical; details: pH 7.4, 2 h
[7] = Induction of NO release per mol of compound in phosphate buffer at pH 7.4 at 100 uM after 1 hr by Griess assay; type: physicochemical; details: pH 7.4, 1 h
[8] = Induction of NO release per mol of compound in phosphate buffer at pH 7.4 at 100 uM after 6 hrs by Griess assay; type: physicochemical; details: pH 7.4, 6 h
[9] = Induction of NO release per mol of compound in phosphate buffer at pH 7.4 at 100 uM after 4 hrs by Griess assay; type: physicochemical; details: pH 7.4, 4 h
[10] = Induction of NO release per mol of compound in phosphate buffer at pH 7.4 at 100 uM after 3 hrs by Griess assay; type: physicochemical; details: pH 7.4, 3 h
Rattus norvegicus [11] = assay: Reduction in 1-(2-Bromopropionyl)-5-(2-furyl)-4,5-dihydro-3-(3,4-dimethoxyphenyl)-1H-pyrazole-induced ulcer in albino rat at 100 mg/kg, po after 5 hrs; type: functional; design: scale not given: the % may be the effect or the level left
Rattus norvegicus [12] = assay: Reduction in 5-(2-furyl)-4,5-dihydro-3-(3,4-dimethoxyphenyl)-1H-pyrazole-induced ulcer in albino rat at 100 mg/kg, po after 5 hrs; type: functional; design: scale not given: the % may be the effect or the level left
[13] = Induction of NO release per mol of compound in phosphate buffer at pH 7.4 at 100 uM after 5 hrs by Griess assay; type: physicochemical; details: pH 7.4, 5 h
Rattus norvegicus [14] = assay: Reduction in 1-(2-Bromoacetyl)-5-(2-furyl)-4,5-dihydro-3-(3,4-dimethoxyphenyl)-1H-pyrazole-induced ulcer in albino rat at 100 mg/kg, po after 5 hrs; type: functional; design: scale not given: the % may be the effect or the level left
Rattus norvegicus [15] = assay: Reduction in 4,5-Dihydro-5-(2,4-dimethoxyphenyl)-3-(3,4-dimethoxyphenyl)-1H-pyrazole-induced ulcer in albino rat at 100 mg/kg, po after 5 hrs; type: functional; design: scale not given: the % may be the effect or the level left
Rattus norvegicus [16] = assay: Reduction in 1-(2-Bromopropionyl)-4,5-dihydro-5-(2,4-dimethoxyphenyl)-3-(3,4-dimethoxyphenyl)-1H-pyrazole-induced ulcer in albino rat at 100 mg/kg, po after 5 hrs; type: functional; design: scale not given: the % may be the effect or the level left
Rattus norvegicus [17] = assay: Reduction in 1-(2-Bromoacetyl)-4,5-dihydro-5-(2,4-dimethoxyphenyl)-3-(3,4-dimethoxyphenyl)-1H-pyrazole-induced ulcer in albino rat at 100 mg/kg, po after 5 hrs; type: functional; design: scale not given: the % may be the effect or the level left
Rattus norvegicus [18] = assay: Reduction in 1-(2-Bromoacetyl)-5-(2,6-dichlorophenyl)-4,5-dihydro-3-(4-methoxyphenyl)-1H-pyrazole-induced ulcer in albino rat at 100 mg/kg, po after 5 hrs; type: functional; design: scale not given: the % may be the effect or the level left
Rattus norvegicus [19] = assay: Reduction in 5-(2,6-Dichlorophenyl)-4,5-dihydro-3-(4-methoxyphenyl)-1H-pyrazole-induced ulcer in albino rat at 100 mg/kg, po after 5 hrs; type: functional; design: scale not given: the % may be the effect or the level left

Row | Activity [5] | NO release [6] | NO release [7] | NO release [8] | NO release [9] | NO release [10] | NO release [13] | Compound | inhibition in vivo at 100 mg/kg (Rattus norvegicus [1]) | inhibition in vivo at 100 mg/kg (Rattus norvegicus [2]) | UI (Rattus norvegicus [3]) | inhibition in vivo at 100 mg/kg (Rattus norvegicus [4]) | Activity (Rattus norvegicus [11]) | Activity (Rattus norvegicus [12]) | Activity (Rattus norvegicus [14]) | Activity (Rattus norvegicus [15]) | Activity (Rattus norvegicus [16]) | Activity (Rattus norvegicus [17]) | Activity (Rattus norvegicus [18]) | Activity (Rattus norvegicus [19])
1 |  |  |  |  |  |  |  | COc1ccc(C2CC(c3ccc(OC)c(OC)c3)=NN2C(=O)CBr)c(OC)c1 (stereo not drawn) | 53% | 71% | 30 | 67% |  |  |  |  |  |  |  | 
2 | Not Active |  |  |  |  |  |  | COc1ccc(C2=NNC(c3ccco3)C2)cc1OC (stereo not drawn) | 45% | 60% | 26.5 | 53% |  |  |  |  |  |  |  | 
3 | Not Active | 0.19 mol/mol | 0.078 mol/mol | 0.087 mol/mol | 0.2 mol/mol | 0.398 mol/mol | 0.125 mol/mol | COc1ccc(C2=NN(C(=O)C(C)O[N+](=O)[O-])C(c3ccco3)C2)cc1OC (stereo not drawn) | 35% | 42% | 7 | 39% | 30% | 73% |  |  |  |  |  | 
4 |  |  |  |  |  |  |  | COc1ccc2c(c1)c(CC(=O)O)c(C)n2C(=O)c1ccc(Cl)cc1 [INDOMETHACIN] | 58% | 82% | 43.5 | 67% |  |  |  |  |  |  |  | 
5 |  |  |  |  |  |  |  | COc1ccc(C2=NN(C(=O)CBr)C(c3c(Cl)cccc3Cl)C2)cc1OC (stereo not drawn) | 48% | 69% | 3 | 58% |  |  |  |  |  |  |  | 
6 | Not Active | 0.128 mol/mol | 0.118 mol/mol | 0.267 mol/mol | 0.167 mol/mol | 0.138 mol/mol | 0.277 mol/mol | COc1ccc(C2=NN(C(=O)CNc3ccc(/C(C)=N/O)cc3)C(c3ccco3)C2)cc1OC (stereo not drawn) | 38% | 46% | 0 | 46% |  | 96% | 92% |  |  |  |  | 
7 |  |  |  |  |  |  |  | COc1ccc(C2=NN(C(=O)CBr)C(c3c(Cl)cccc3Cl)C2)cc1 (stereo not drawn) | 43% | 7% | 6 | 49% |  |  |  |  |  |  |  | 
8 |  |  |  |  |  |  |  | COc1ccc(C2=NNC(c3c(Cl)cccc3Cl)C2)cc1 (stereo not drawn) | 54% | 60% | 31 | 58% |  |  |  |  |  |  |  | 
9 |  |  |  |  |  |  |  | COc1ccc(C2=NN(C(=O)C(C)Br)C(c3c(Cl)cccc3Cl)C2)cc1OC (stereo not drawn) | 51% | 60% | 10 | 56% |  |  |  |  |  |  |  | 
10 | Not Active | 0.16 mol/mol | 0.098 mol/mol | 0.09 mol/mol | 0.128 mol/mol | 0.438 mol/mol | 0.065 mol/mol | COc1ccc(C2CC(c3ccc(OC)c(OC)c3)=NN2C(=O)C(C)O[N+](=O)[O-])c(OC)c1 (stereo not drawn) | 44% | 56% | 3 | 61% |  |  |  | 57% | 86% |  |  | 
11 |  |  |  |  |  |  |  | COc1ccc(C2=NN(C(=O)C(C)Br)C(c3ccco3)C2)cc1OC (stereo not drawn) | 22% | 42% | 10 | 36% |  |  |  |  |  |  |  | 
12 |  |  |  |  |  |  |  | COc1ccc(C2CC(c3ccc(OC)c(OC)c3)=NN2)c(OC)c1 (stereo not drawn) | 38% | 42% | 7 | 39% |  |  |  |  |  |  |  | 
13 | Not Active |  |  |  |  |  |  | COc1ccc(C2=NN(C(=O)CBr)C(c3ccco3)C2)cc1OC (stereo not drawn) | 38% | 51% | 13 | 46% |  |  |  |  |  |  |  | 
14 |  |  |  |  |  |  |  | COc1ccc(C2=NNC(c3c(Cl)cccc3Cl)C2)cc1OC (stereo not drawn) | 26% | 58% | 3 | 49% |  |  |  |  |  |  |  | 
15 | Not Active | 0.19 mol/mol | 0.123 mol/mol | 0.114 mol/mol | 0.255 mol/mol | 0.501 mol/mol | 0.145 mol/mol | COc1ccc(C2=NN(C(=O)C(C)O[N+](=O)[O-])C(c3c(Cl)cccc3Cl)C2)cc1OC (stereo not drawn) | 47% | 55% | 7 | 53% |  |  |  |  |  |  |  | 
16 | Not Active | 0.391 mol/mol | 0.329 mol/mol | 0.588 mol/mol | 0.523 mol/mol | 0.433 mol/mol | 0.78 mol/mol | COc1ccc(C2CC(c3ccc(OC)c(OC)c3)=NN2C(=O)CO[N+](=O)[O-])c(OC)c1 (stereo not drawn) | 38% | 58% | 5 | 48% |  |  |  | 28% |  | 83% |  | 
17 | Not Active | 0.295 mol/mol | 0.195 mol/mol | 0.593 mol/mol | 0.451 mol/mol | 0.356 mol/mol | 0.656 mol/mol | COc1ccc(C2=NN(C(=O)CO[N+](=O)[O-])C(c3c(Cl)cccc3Cl)C2)cc1 (stereo not drawn) | 34% | 52% | 0 | 42% |  |  |  |  |  |  | 93% | 96%
18 | Not Active | 0.114 mol/mol | 0.137 mol/mol | 0.268 mol/mol | 0.194 mol/mol | 0.148 mol/mol | 0.302 mol/mol | COc1ccc(C2CC(c3ccc(OC)c(OC)c3)=NN2C(=O)CNc2ccc(/C(C)=N/O)cc2)c(OC)c1 (stereo not drawn) | 27% | 46% | 2 | 44% |  |  |  | 71% |  | 93% |  | 
19 | Not Active | 0.211 mol/mol | 0.126 mol/mol | 0.535 mol/mol | 0.483 mol/mol | 0.281 mol/mol | 0.614 mol/mol | COc1ccc(C2=NN(C(=O)CO[N+](=O)[O-])C(c3ccco3)C2)cc1OC (stereo not drawn) | 32% | 43% | 2 | 37% |  | 92% | 84% |  |  |  |  | 
20 |  |  |  |  |  |  |  | COc1ccc(C2CC(c3ccc(OC)c(OC)c3)=NN2C(=O)C(C)Br)c(OC)c1 (stereo not drawn) | 58% | 69% | 23 | 63% |  |  |  |  |  |  |  | 
21 | Not Active | 0.395 mol/mol | 0.147 mol/mol | 0.625 mol/mol | 0.555 mol/mol | 0.516 mol/mol | 0.738 mol/mol | COc1ccc(C2=NN(C(=O)CO[N+](=O)[O-])C(c3c(Cl)cccc3Cl)C2)cc1OC (stereo not drawn) | 40% | 58% | 4 | 49% |  |  |  |  |  |  |  | 
